Test results reported in article PMC10364322, “Evaluation of chronic drug-induced electrophysiological and cytotoxic effects using human-induced pluripotent stem cell-derived cardiomyocytes (hiPSC-CMs)” (Frontiers in Pharmacology, 2023).
Where two headings read alike, the source gives them in different places.

Test system: hiPSC-CMs (iCell-Cardiomyocytes^2)
How it was run: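 Monolayers of hiPSC-CMs on fibronectin-coated MEA plates, 50 K/well, kept at 37°C, 5% CO2; compounds added in 0.1% final DMSO after 5-min baseline. Field potential and impedance parameters expressed as mean ± SD percent change from baseline; arrhythmic events noted; cytotoxicity fluorescence normalized to DMSO, Kruskal-Wallis.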

## C#Cc1cccc(Nc2ncnc3cc(OCCOC)c(OCCOC)cc23)c1 [Erlotinib]
0.3 µM, 2h
  BR (beat rate) % change from baseline: 3±3%
  Beating below threshold, number of observations/total well numbers: 0/5
  Cessation of beating, number of observations/total well numbers: 0/5
  EAD, number of observations/total well numbers: 0/5
  FPD (field-potential duration), % change from baseline: 0.6±0.9%
  FPDc (field-potential duration corrected by beat-rate), % change from baseline: 1.6±1.1%
  Flat T-wave-like, number of observations/total well numbers: 0/5
0.3 µM, 24h
  BR (beat rate) % change from baseline: -1±5%
  Beating below threshold, number of observations/total well numbers: 0/5
  Cessation of beating, number of observations/total well numbers: 0/5
  EAD, number of observations/total well numbers: 0/5
  FPD (field-potential duration), % change from baseline: 7.8±3.3%
  FPDc (field-potential duration corrected by beat-rate), % change from baseline: 7.4±1.9%
  Flat T-wave-like, number of observations/total well numbers: 0/5
0.3 µM, 48h
  BR (beat rate) % change from baseline: -12±1%
  Beating below threshold, number of observations/total well numbers: 0/5
  Cessation of beating, number of observations/total well numbers: 0/5
  EAD, number of observations/total well numbers: 0/5
  FPD (field-potential duration), % change from baseline: 16.2±1.3%
  FPDc (field-potential duration corrected by beat-rate), % change from baseline: 11.5±0.7%
  Flat T-wave-like, number of observations/total well numbers: 0/5
0.3 µM, 72h
  BR (beat rate) % change from baseline: -8±2%
  Beating below threshold, number of observations/total well numbers: 0/5
  Cessation of beating, number of observations/total well numbers: 0/5
  EAD, number of observations/total well numbers: 0/5
  FPD (field-potential duration), % change from baseline: 14.6±3.1%
  FPDc (field-potential duration corrected by beat-rate), % change from baseline: 11.4±2.8%
  Flat T-wave-like, number of observations/total well numbers: 0/5
0.3 µM, 96h
  BR (beat rate) % change from baseline: -14±1%
  Beating below threshold, number of observations/total well numbers: 0/5
  Cessation of beating, number of observations/total well numbers: 0/5
  EAD, number of observations/total well numbers: 0/5
  FPD (field-potential duration), % change from baseline: 21.2±1.9%
  FPDc (field-potential duration corrected by beat-rate), % change from baseline: 15.1±1.6%
  Flat T-wave-like, number of observations/total well numbers: 0/5
1 µM, 2h
  BR (beat rate) % change from baseline: 1±1%
  Beating below threshold, number of observations/total well numbers: 0/5
  Cessation of beating, number of observations/total well numbers: 0/5
  EAD, number of observations/total well numbers: 0/5
  FPD (field-potential duration), % change from baseline: 3.4±1%
  FPDc (field-potential duration corrected by beat-rate), % change from baseline: 3.8±0.8%
  Flat T-wave-like, number of observations/total well numbers: 0/5
1 µM, 24h
  BR (beat rate) % change from baseline: 0±5%
  Beating below threshold, number of observations/total well numbers: 0/5
  Cessation of beating, number of observations/total well numbers: 0/5
  EAD, number of observations/total well numbers: 0/5
  FPD (field-potential duration), % change from baseline: 5.5±5.8%
  FPDc (field-potential duration corrected by beat-rate), % change from baseline: 5.6±4%
  Flat T-wave-like, number of observations/total well numbers: 0/5
1 µM, 48h
  BR (beat rate) % change from baseline: -13±3%
  Beating below threshold, number of observations/total well numbers: 0/5
  Cessation of beating, number of observations/total well numbers: 0/5
  EAD, number of observations/total well numbers: 0/5
  FPD (field-potential duration), % change from baseline: 16.6±3.6%
  FPDc (field-potential duration corrected by beat-rate), % change from baseline: 11.3±2.2%
  Flat T-wave-like, number of observations/total well numbers: 0/5
1 µM, 72h
  BR (beat rate) % change from baseline: -9±2%
  Beating below threshold, number of observations/total well numbers: 0/5
  Cessation of beating, number of observations/total well numbers: 0/5
  EAD, number of observations/total well numbers: 0/5
  FPD (field-potential duration), % change from baseline: 14.7±3.9%
  FPDc (field-potential duration corrected by beat-rate), % change from baseline: 11±3.3%
  Flat T-wave-like, number of observations/total well numbers: 0/5
1 µM, 96h
  BR (beat rate) % change from baseline: -16±2%
  Beating below threshold, number of observations/total well numbers: 0/5
  Cessation of beating, number of observations/total well numbers: 0/5
  EAD, number of observations/total well numbers: 0/5
  FPD (field-potential duration), % change from baseline: 22.4±3.5%
  FPDc (field-potential duration corrected by beat-rate), % change from baseline: 15.1±2.5%
  Flat T-wave-like, number of observations/total well numbers: 0/5
3 µM, 72h
  BR (beat rate) % change from baseline: -10±2%
  Beating below threshold, number of observations/total well numbers: 0/5
  Cessation of beating, number of observations/total well numbers: 0/5
  EAD, number of observations/total well numbers: 0/5
  FPD (field-potential duration), % change from baseline: 10.9±3.3%
  FPDc (field-potential duration corrected by beat-rate), % change from baseline: 7.1±2.8%
  Flat T-wave-like, number of observations/total well numbers: 0/5
3 µM, 96h
  BR (beat rate) % change from baseline: -18±2%
  Beating below threshold, number of observations/total well numbers: 0/5
  Cessation of beating, number of observations/total well numbers: 0/5
  EAD, number of observations/total well numbers: 0/5
  FPD (field-potential duration), % change from baseline: 18.9±1.9%
  FPDc (field-potential duration corrected by beat-rate), % change from baseline: 11.7±1.1%
  Flat T-wave-like, number of observations/total well numbers: 0/5
3 µM, 2h
  BR (beat rate) % change from baseline: 1±2%
  Beating below threshold, number of observations/total well numbers: 0/5
  Cessation of beating, number of observations/total well numbers: 0/5
  EAD, number of observations/total well numbers: 0/5
  FPD (field-potential duration), % change from baseline: 2±3%
  FPDc (field-potential duration corrected by beat-rate), % change from baseline: 2.4±2.4%
  Flat T-wave-like, number of observations/total well numbers: 0/5
3 µM, 24h
  BR (beat rate) % change from baseline: 2±3%
  Beating below threshold, number of observations/total well numbers: 0/5
  Cessation of beating, number of observations/total well numbers: 0/5
  EAD, number of observations/total well numbers: 0/5
  FPD (field-potential duration), % change from baseline: 0.1±4%
  FPDc (field-potential duration corrected by beat-rate), % change from baseline: 0.7±3%
  Flat T-wave-like, number of observations/total well numbers: 0/5
3 µM, 48h
  BR (beat rate) % change from baseline: -13±3%
  Beating below threshold, number of observations/total well numbers: 0/5
  Cessation of beating, number of observations/total well numbers: 0/5
  EAD, number of observations/total well numbers: 0/5
  FPD (field-potential duration), % change from baseline: 11±2.4%
  FPDc (field-potential duration corrected by beat-rate), % change from baseline: 5.9±1.1%
  Flat T-wave-like, number of observations/total well numbers: 0/5
10 µM (highest concentration)
  wells with flat T-wave: One well on 5
10 µM, 2h
  BR (beat rate) % change from baseline: 1±1%
  Beating below threshold, number of observations/total well numbers: 0/5
  Cessation of beating, number of observations/total well numbers: 0/5
  EAD, number of observations/total well numbers: 0/5
  FPD (field-potential duration), % change from baseline: 3.5±0.9%
  FPDc (field-potential duration corrected by beat-rate), % change from baseline: 3.9±1.1%
  Flat T-wave-like, number of observations/total well numbers: 0/5
10 µM, 24h
  BR (beat rate) % change from baseline: -1±7%
  Beating below threshold, number of observations/total well numbers: 0/5
  Cessation of beating, number of observations/total well numbers: 0/5
  EAD, number of observations/total well numbers: 0/5
  FPD (field-potential duration), % change from baseline: 7.2±5.8%
  FPDc (field-potential duration corrected by beat-rate), % change from baseline: 6.3±4.1%
  Flat T-wave-like, number of observations/total well numbers: 1/5
10 µM, 48h
  BR (beat rate) % change from baseline: -15±4%
  Beating below threshold, number of observations/total well numbers: 0/5
  Cessation of beating, number of observations/total well numbers: 0/5
  EAD, number of observations/total well numbers: 0/5
  FPD (field-potential duration), % change from baseline: 15.4±2.7%
  FPDc (field-potential duration corrected by beat-rate), % change from baseline: 8.7±1.6%
  Flat T-wave-like, number of observations/total well numbers: 1/5
10 µM, 72h
  BR (beat rate) % change from baseline: -13±4%
  Beating below threshold, number of observations/total well numbers: 0/5
  Cessation of beating, number of observations/total well numbers: 0/5
  EAD, number of observations/total well numbers: 0/5
  FPD (field-potential duration), % change from baseline: 16.4±6.7%
  FPDc (field-potential duration corrected by beat-rate), % change from baseline: 10.6±6%
  Flat T-wave-like, number of observations/total well numbers: 1/5
10 µM, 96h
  BR (beat rate) % change from baseline: -19±2%
  Beating below threshold, number of observations/total well numbers: 0/5
  Cessation of beating, number of observations/total well numbers: 0/5
  EAD, number of observations/total well numbers: 0/5
  FPD (field-potential duration), % change from baseline: 25±8.1%
  FPDc (field-potential duration corrected by beat-rate), % change from baseline: 16±6.6%
  Flat T-wave-like, number of observations/total well numbers: 1/5
All concentrations tested
  arrhythmic-like events: no arrhythmic-like events were observed
  changes in BR: nor significant changes in BR
  prolongation of FPD / FPDc: did not observe any physiologically relevant prolongation in FPD and FPDc
Up to ∼ three times the estimated fCmax
  effect on hiPSC-CMs electrophysiology or cytotoxicity: did not detect any significant effect on hiPSC-CMs electrophysiology or cytotoxicity
